From patent US8841466B2, “Series of artemisinin derivatives and process for preparation thereof” (Council of Scientific & Industrial Research, priority 2010, dated 2014)

How the values were obtained:
[1] = test system: P388 leukemia; conditions: NCI Report on NSC 369397, 25 Oct. 1983; cited from earlier work
[2] = test system: Prostrate PC-3; assay: In vitro cytotoxicity (sulforhodamine B) against human cancer cell lines, Prostrate PC-3; assay type: cell-based; conditions: read-out: % GROWTH INHIBITION Prostrate PC-3; for inhibition at 50 µM: Conc 5 × 10^−5 M, 48 hours
Method: (§1) The human cancer cell lines procured from National Cancer Institute, Frederick, U.S.A., were used in present study. Cells were grown in tissue culture flasks in complete growth medium (RPMI-1640 medium with 2 mM glutamine, 100 μg/mL streptomycin, pH 7.4, sterilized by filtration and supplemented with 10% fetal bovine serum and 100 units/ml penicillin before use) at 37° C. in an atmosphere of 5% CO2 and 90% relative humidity in a carbon dioxide incubator. The cells at subconfluent stage were harvested from the flask by treatment with trypsin (0.05% in PBS containing 0.02% EDTA) for determination of cytotoxicity. The cell suspension of the required cell density was prepared in complete growth medium with gentamycin (50 μg/mL) for determination of cytotoxicity.
(§2) Stock solutions of 2×10^−2M of test materials were prepared in DMSO. The stock solutions were serially diluted with complete growth medium containing 50 μg/ml of gentamycin to obtain working test solution of 2×10^−5M to obtain final concentration of 1×10^−5 M respectively.
(§3) In vitro cytotoxicity against human cancer cell lines was determined (Monks of al., J. Natl. Cancer Inst. 1991, 83, 757-766). The 100 μL of cell suspension was added to each well of the 96-well tissue culture plate. The cells were incubated for 24 hours (at 37° C. in an atmosphere of 5% CO2 and 90% relative humidity in a carbon dioxide incubator). Test materials in complete growth medium (100 μL) were added after 24 hours incubation to the wells containing cells. The plates were further incubated for 48 hours in a carbon dioxide incubator after addition of test material. The cell growth was stopped by gently layering trichloroacetic acid (50 μL, 50% w/v) on top of the medium in all the wells. The plates were incubated at 4° C. for one hour to fix the cells attached to the bottom of the wells. The liquid of all the wells was then gently decanted and discarded. The plates were washed five times with distilled water and air-dried. Cell growth was measured by staining with sulforhodamine B dye (Skehan et al., J. Natl. Cancer Inst. 1990, 82, 1107-1112). The adsorbed dye was dissolved in Tris-Buffer (100 μL, 0.01M, pH 10.4) and plates were gently stirred for 10 minutes on a mechanical stirrer. The optical density (OD) was recorded on ELISA reader at 540 nm.
(§4) The cell growth was calculated by subtracting mean OD value of respective blank from the mean OD value of experimental set. Percent growth in presence of test material was calculated considering the growth in absence of any test material as 100% and in turn percent growth inhibition in presence of test material was calculated. Suitable blank, controls and positive controls were included in the study.

[3] = test system: Ovary IGR-OV-1; assay: In vitro cytotoxicity (sulforhodamine B) against human cancer cell lines, Ovary IGR-OV-1; assay type: cell-based; conditions: IGROV-1, Conc 5 × 10^−5 M, 48 hours, read-out: % GROWTH INHIBITION Ovary IGR-OV-1
Method: as §1, §2, §3, §4

[4] = test system: Lung A-549; assay: In vitro cytotoxicity (sulforhodamine B) against human cancer cell lines, Lung A-549; assay type: cell-based; conditions: read-out: % GROWTH INHIBITION Lung A-549; for inhibition at 50 µM: A549, Conc 5 × 10^−5 M, 48 hours
Method: as §1, §2, §3, §4

[5] = test system: Prostrate DU-145; assay: In vitro cytotoxicity (sulforhodamine B) against human cancer cell lines, Prostrate DU-145; assay type: cell-based; conditions: read-out: % GROWTH INHIBITION Prostrate DU-145; for inhibition at 50 µM: Conc 5 × 10^−5 M, 48 hours
Method: as §1, §2, §3, §4

[6] = test system: Neuroblastoma IMR-32; assay: In vitro cytotoxicity (sulforhodamine B) against human cancer cell lines, Neuroblastoma IMR-32; assay type: cell-based; conditions: read-out: % GROWTH INHIBITION Neuroblastoma IMR-32; for inhibition at 50 µM: Conc 5 × 10^−5 M, 48 hours
Method: as §1, §2, §3, §4

[7] = test system: Colon Colo-205; assay: In vitro cytotoxicity (sulforhodamine B) against human cancer cell lines, Colon Colo-205; assay type: cell-based; conditions: read-out: % GROWTH INHIBITION Colon Colo-205; for inhibition at 50 µM: Conc 5 × 10^−5 M, 48 hours
Method: as §1, §2, §3, §4

[8] = test system: Breast MCF-7; assay: In vitro cytotoxicity (sulforhodamine B) against human cancer cell lines, Breast MCF-7; assay type: cell-based; conditions: read-out: % GROWTH INHIBITION Breast MCF-7; for inhibition at 50 µM: MCF7, Conc 5 × 10^−5 M, 48 hours
Method: as §1, §2, §3, §4

[9] = test system: cell line panels consisting of 60 lines; conditions: nine disease-related subpanels; cited from earlier work
[10] = test system: Ehrlich ascites tumor (EAT) cells; conditions: MTT assay, read-out: IC50 (drug concentration causing 50% growth inhibition of the tumor cells); cited from earlier work
[11] = Conc 1 × 10^−5 M, positive control

Compound | inhibition at 50 µM [2] | inhibition at 50 µM [3] | inhibition at 50 µM [4] | inhibition at 50 µM [5] | inhibition at 50 µM [6] | inhibition at 50 µM [7] | inhibition at 50 µM [8] | also measured
C[C@@H]1CC[C@H]2[C@@H](C)C(=O)O[C@@H]3O[C@@]4(C)CC[C@@H]1[C@]32OO4 [Artemisinin, artemisinin] | 22% | 26% | 29% | 38% | 23% | 40% | 34% | activity against P388 leukemia [1]: inactive; anticancer activity on 60 cell line panels [9]: very little anticancer activity; IC50 [10]: 29.8 µM
CO[C@@]12[C@H](COC(N)=O)C3=C(C(=O)C(C)=C(N)C3=O)N1C[C@@H]1N[C@@H]12 [Mitomycin, reference compound] | – | – | – | – | – | – | – | inhibition at 10 µM [2, 11]: 54%; inhibition at 10 µM [5, 11]: 92%
O=c1[nH]cc(F)c(=O)[nH]1 [5-Fluorouracil, reference compound] | – | – | – | – | – | – | – | inhibition at 20 µM ([7]; Conc 2 × 10^−5 M, positive control): 54%
C=C(C(C)=O)[C@H](O)C[C@H]1O[C@@H]2O[C@]3(C)CC[C@H]4[C@H](C)CC[C@@H]([C@H]1C)[C@@]24OO3 [Compound 3c] | 81% | 33% | 85% | 73% | 79% | 100% | 66% | –
C=C(C(=O)OC)[C@H](O)C[C@H]1O[C@@H]2O[C@]3(C)CC[C@H]4[C@H](C)CC[C@@H]([C@H]1C)[C@@]24OO3 [Compound 3a] | – | 63% | 70% | – | 56% | – | – | –
COc1cccc2c1C(=O)c1c(O)c3c(c(O)c1C2=O)C[C@@](O)(C(=O)CO)C[C@@H]3O[C@H]1C[C@H](N)[C@H](O)[C@H](C)O1 [Adriamycin, reference compound] | – | – | – | – | – | – | – | inhibition at 1 µM ([6]; Conc 1 × 10^−6 M, positive control): 70%; inhibition at 1 µM ([8]; MCF7, Conc 1 × 10^−6 M, positive control): 72%
C=C(C#N)[C@H](O)C[C@H]1O[C@@H]2O[C@]3(C)CC[C@H]4[C@H](C)CC[C@@H]([C@H]1C)[C@@]24OO3 (single isomer, unassigned) [Compound 3b] | 65% | 42% | 66% | 46% | 48% | 56% | 46% | –
CC(=O)O[C@H]1C(=O)[C@@]2(C)[C@H]([C@H](OC(=O)c3ccccc3)[C@]3(O)C[C@H](OC(=O)[C@H](O)[C@@H](NC(=O)c4ccccc4)c4ccccc4)C(C)=C1C3(C)C)[C@]1(OC(C)=O)CO[C@@H]1C[C@@H]2O [Paclitaxel, reference compound] | – | – | – | – | – | – | – | inhibition at 10 µM ([4]; A549, Conc 1 × 10^−5 M, positive control): 69%
C=C(C#N)[C@@H](O)C[C@H]1O[C@@H]2O[C@]3(C)CC[C@H]4[C@H](C)CC[C@@H]([C@H]1C)[C@@]24OO3 (single isomer, unassigned) [Compound 3b′] | 78% | 56% | 77% | 60% | 62% | 75% | 55% | –
C[C@H]1[C@@H](C[C@@H](O)C2=CCCCC2=O)O[C@@H]2O[C@]3(C)CC[C@H]4[C@H](C)CC[C@@H]1[C@@]24OO3 [Compound 3d] | 68% | 60% | 66% | 52% | 72% | 63% | 43% | –
